{"source": "patent US9603950B1", "about": "“Compounds of imaging agent with HDAC inhibitor for treatment of Alzheimer syndrome and method of synthesis thereof” (INSTITUTE OF NUCLEAR ENERGY RESEARCH, priority 2015, dated 2017)", "details_in_all_cases": "BNL-26 inhibitor labeled with 11C", "key": {"HDAC1": {"target": "HDAC1 (Homo sapiens, UniProt Q13547)", "sequence (Q13547 whole entry, species assumed)": "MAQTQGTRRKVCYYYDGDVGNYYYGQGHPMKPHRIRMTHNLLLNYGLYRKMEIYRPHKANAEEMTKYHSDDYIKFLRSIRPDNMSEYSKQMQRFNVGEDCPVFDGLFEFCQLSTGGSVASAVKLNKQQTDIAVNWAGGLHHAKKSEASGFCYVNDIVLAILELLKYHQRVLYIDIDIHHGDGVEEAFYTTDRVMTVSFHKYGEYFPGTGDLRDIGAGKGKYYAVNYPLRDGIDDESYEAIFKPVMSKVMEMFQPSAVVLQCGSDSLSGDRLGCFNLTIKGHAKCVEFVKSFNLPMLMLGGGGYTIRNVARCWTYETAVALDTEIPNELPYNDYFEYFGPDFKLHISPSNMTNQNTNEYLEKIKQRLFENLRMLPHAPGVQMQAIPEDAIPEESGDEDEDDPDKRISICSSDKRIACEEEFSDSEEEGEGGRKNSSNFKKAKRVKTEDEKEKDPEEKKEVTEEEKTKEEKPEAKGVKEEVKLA", "assay": "HDAC1 inhibition, previous study of 11C-labeled BNL-26", "assay_type": "biochemical"}, "[1]": {"assay": "Penetration of the brain blood vessel barrier, previous study of 11C-labeled BNL-26", "assay_type": "in vivo"}, "HDAC2": {"target": "HDAC2 (Homo sapiens, UniProt Q92769)", "sequence (Q92769 whole entry, species assumed)": "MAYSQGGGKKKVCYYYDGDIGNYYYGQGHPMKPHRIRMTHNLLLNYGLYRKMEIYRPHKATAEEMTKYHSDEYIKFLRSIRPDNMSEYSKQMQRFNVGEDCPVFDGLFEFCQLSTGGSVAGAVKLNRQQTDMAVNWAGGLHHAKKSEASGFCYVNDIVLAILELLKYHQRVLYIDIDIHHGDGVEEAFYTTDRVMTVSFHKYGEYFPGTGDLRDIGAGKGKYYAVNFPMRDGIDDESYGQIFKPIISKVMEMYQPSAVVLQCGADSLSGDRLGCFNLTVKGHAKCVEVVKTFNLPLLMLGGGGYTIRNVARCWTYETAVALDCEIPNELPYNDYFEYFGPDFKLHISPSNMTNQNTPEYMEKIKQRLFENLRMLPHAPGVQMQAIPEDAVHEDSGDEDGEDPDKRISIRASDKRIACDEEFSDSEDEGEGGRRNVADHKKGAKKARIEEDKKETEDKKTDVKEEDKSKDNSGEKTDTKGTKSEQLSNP", "assay": "HDAC2 inhibition, previous study of 11C-labeled BNL-26", "assay_type": "biochemical"}}, "data": [{"smiles": "CN(C)Cc1ccc(C(=O)Nc2cc(-c3ccccc3)ccc2N)cc1", "note": "[BNL-26, N-(4-amino-[1,1′-biphenyl]-3-yl)-4-((dimethylamino)methyl)benzamide]", "values": [{"measurement": "inhibitory effect of HDAC1", "setting": "HDAC1", "result": "good inhibitory effect"}, {"measurement": "ability to penetrate the brain blood vessel barrier", "setting": "[1]", "result": "very good"}, {"measurement": "inhibitory effect of HDAC2", "setting": "HDAC2", "result": "good inhibitory effect"}]}]}
